Assay results as given in US8410302B2, “Methoxyimino compounds and fungicide composition comprising same” (Kyung Nong Corporation, priority 2007, dated 2013).
Like-named read-outs stand apart in the source and are kept apart here.

Tests used:
[1] = tested on: Pyricularia oryzae Carvara KA301; experiment: whole plant or invertebrate; format: in vivo; settings: Pyricularia oryzae, read-out: RCB control value (C.V.)
Botrytis cinerae = experiment: Fungicidal activity against cucumber gray mold rot (CGM) disease, control value; format: in vivo; settings: Botrytis, read-out: CGM control value (C.V.)
Phytophthora infestans = experiment: whole plant or invertebrate; format: in vivo; settings: Phytophthora infestans, in Solanum lycopersicum, read-out: TLB control value (C.V.)
Puccinia recondita = experiment: Fungicidal activity against wheat leaf rust (WLR) disease, control value; format: in vivo; settings: read-out: WLR control value (C.V.)
Erysiphae graminis = experiment: Fungicidal activity against barley powdery mildew (BPM) disease, control value; format: in vivo; settings: 168 h, read-out: BPM control value (C.V.)
Rhizoctonia solani AG-1 = experiment: Fungicidal activity against rice sheath blight (RSB) disease, control value; settings: Rhizoctonia solani, AG1, in Oryza sativa, read-out: RSB control value (C.V.)
[2] = Hordeum vulgare, barley powdery mildew

CCOc1cc(C=C(Br)Br)ccc1OCc1ccccc1/C(=N\OC)C(=O)NC [Example 84, (E)-2-(2-((4-(2,2-dibromovinyl)-2-ethoxyphenoxy)methyl)phenyl)-2-methoxyimino-N-methylacetamide]
55%: pest or weed control at 2 ppm (Rhizoctonia solani AG-1)
30%: pest or weed control at 2 ppm [1]
98%: pest or weed control at 50 ppm (Phytophthora infestans) | pest or weed control at 10 ppm (Rhizoctonia solani AG-1)
100%: pest or weed control at 50 ppm [1] | pest or weed control at 100 ppm [1] | pest or weed control at 100 ppm (Phytophthora infestans) | pest or weed control at 10 ppm (Puccinia recondita; Puccinia recondita) | pest or weed control at 50 ppm (Puccinia recondita; Puccinia recondita) | pest or weed control at 100 ppm (Puccinia recondita; Puccinia recondita) | pest or weed control at 10 ppm (Erysiphae graminis) | pest or weed control at 50 ppm (Erysiphae graminis) | pest or weed control at 100 ppm (Erysiphae graminis) | pest or weed control at 50 ppm (Rhizoctonia solani AG-1) | pest or weed control at 100 ppm (Rhizoctonia solani AG-1)
90%: pest or weed control at 10 ppm [1] | pest or weed control at 10 ppm (Phytophthora infestans) | pest or weed control at 2 ppm (Erysiphae graminis)
70%: pest or weed control at 100 ppm (Botrytis cinerae) | pest or weed control at 2 ppm (Phytophthora infestans)
95%: pest or weed control at 2 ppm (Puccinia recondita; Puccinia recondita)

CCOc1cc(C=C(Cl)Cl)ccc1OCc1ccccc1/C(=N\OC)C(=O)OC [Example 59, methyl-(E)-2-(2-((4-(2,2-dichlorovinyl)-2-ethoxyphenoxy)methyl)phenyl)-2-methoxyiminoacetate]
65%: pest or weed control at 100 ppm (Botrytis cinerae)
98%: pest or weed control at 2 ppm (Phytophthora infestans) | pest or weed control at 2 ppm (Erysiphae graminis) | pest or weed control at 2 ppm (Rhizoctonia solani AG-1)
97%: pest or weed control at 2 ppm [1]
90%: pest or weed control at 2 ppm (Puccinia recondita; Puccinia recondita)
100%: pest or weed control at 10 ppm [1] | pest or weed control at 50 ppm [1] | pest or weed control at 100 ppm [1] | pest or weed control at 10 ppm (Phytophthora infestans) | pest or weed control at 50 ppm (Phytophthora infestans) | pest or weed control at 100 ppm (Phytophthora infestans) | pest or weed control at 10 ppm (Puccinia recondita; Puccinia recondita) | pest or weed control at 50 ppm (Puccinia recondita; Puccinia recondita) | pest or weed control at 100 ppm (Puccinia recondita; Puccinia recondita) | pest or weed control at 10 ppm (Erysiphae graminis) | pest or weed control at 50 ppm (Erysiphae graminis) | pest or weed control at 100 ppm (Erysiphae graminis) | pest or weed control at 10 ppm (Rhizoctonia solani AG-1) | pest or weed control at 50 ppm (Rhizoctonia solani AG-1) | pest or weed control at 100 ppm (Rhizoctonia solani AG-1)

CNC(=O)/C(=N/OC)c1ccccc1COc1ccc(C=C(F)F)cc1 [Example 10, (E)-2-(2-((4-(2,2-difluorovinyl)phenoxy)methyl)phenyl)-2-methoxyimino-N-methylacetamide]
98%: pest or weed control at 100 ppm (Erysiphae graminis; [2])
60%: pest or weed control at 50 ppm (Erysiphae graminis; [2])
50%: pest or weed control at 100 ppm (Botrytis cinerae; cucumber gray mold rot)
100%: pest or weed control at 2 ppm [1] | pest or weed control at 10 ppm [1] | pest or weed control at 50 ppm [1] | pest or weed control at 100 ppm [1] | pest or weed control at 2 ppm (Phytophthora infestans) | pest or weed control at 10 ppm (Phytophthora infestans) | pest or weed control at 50 ppm (Phytophthora infestans) | pest or weed control at 100 ppm (Phytophthora infestans) | pest or weed control at 2 ppm (Puccinia recondita; wheat leaf rust) | pest or weed control at 10 ppm (Puccinia recondita; wheat leaf rust) | pest or weed control at 50 ppm (Puccinia recondita; wheat leaf rust) | pest or weed control at 100 ppm (Puccinia recondita; wheat leaf rust)
45%: pest or weed control at 100 ppm (Rhizoctonia solani AG-1)

CO/N=C(/C(=O)OC)c1ccccc1COc1cccc(C=C(Br)Br)c1Cl [Example 67, methyl-(E)-2-(2-((3-(2,2-dibromovinyl)-2-chlorophenoxy)methyl)phenyl)-2-methoxyiminoacetate]
40%: pest or weed control at 50 ppm (Botrytis cinerae; 50 ppm)
99%: pest or weed control at 2 ppm (Phytophthora infestans)
100%: pest or weed control at 2 ppm [1] | pest or weed control at 10 ppm [1] | pest or weed control at 50 ppm [1] | pest or weed control at 100 ppm [1] | pest or weed control at 10 ppm (Phytophthora infestans) | pest or weed control at 50 ppm (Phytophthora infestans) | pest or weed control at 100 ppm (Phytophthora infestans) | pest or weed control at 2 ppm (Puccinia recondita; Puccinia recondita) | pest or weed control at 10 ppm (Puccinia recondita; Puccinia recondita) | pest or weed control at 50 ppm (Puccinia recondita; Puccinia recondita) | pest or weed control at 100 ppm (Puccinia recondita; Puccinia recondita) | pest or weed control at 2 ppm (Erysiphae graminis) | pest or weed control at 10 ppm (Erysiphae graminis) | pest or weed control at 50 ppm (Erysiphae graminis) | pest or weed control at 100 ppm (Erysiphae graminis) | pest or weed control at 2 ppm (Rhizoctonia solani AG-1) | pest or weed control at 10 ppm (Rhizoctonia solani AG-1) | pest or weed control at 50 ppm (Rhizoctonia solani AG-1) | pest or weed control at 100 ppm (Rhizoctonia solani AG-1)
85%: pest or weed control at 100 ppm (Botrytis cinerae)
